Columns and labels:
[1] = tested on: all microorganisms tested; assay: Broth microdilution MIC, statement for all microorganisms tested; format: cell-based; details: for Antibacterial activity (in words): tested microorganisms
Method: (§1) Antibacterial assays were conducted in vitro using the broth microdilution method. The minimum inhibitory concentration (MIC) is the smallest concentration of antibacterial agent at which bacterial growth is not observed. MIC values were determined for 4 Gram-positive bacteria (methicillin-resistant Staphylococcus aureus ATCC 43300 (MRSA), Bacillus subtilis ATCC 6633, Kocuria rhizophila 9341, Staphylococcus epidermidis ATCC 12228), 3 Gram-negative bacteria (Klebsiella pneumoniae ATCC 4532, Pseudomonas aeruginosa ATCC 27853, Escherichia coli ATCC 8739) and the fungal strain, Candida albicans ATCC 10231. Frozen stocks of bacteria were incubated on Muller Hinton agar plates for 24 h at 37 °C. From this culture, a bacterial suspension of 1 × 10^6 colony forming units CFU/mL was prepared in MHB (pH = 7.3). Two dilutions of pure surfactants and their binary mixtures were prepared in MH broth to obtain a final concentration ranging from 4 to 454 μM in the microtiter plates.
(§2) Then, 10 μL of nutrient broth culture of each microorganism was added to achieve a final density of ca. 5 × 10^5 CFU/mL. The cultures were incubated for 24 h at 37 °C. Every assay was repeated three times.

[2] = design: method as in PMID 17319702; details: cited from earlier work
[3] = format: physicochemical
Method: To check whether there was a pKa shift, we titrated the surfactant at a concentration below the CMC. The titration curve is shown in Supplementary Figure S1, where 10 mL of 1.5 mM surfactant was titrated with 3 mM NaOH.
The titration was followed using a glass electrode Orion coupled with an Orion Versastar reader (Thermo Scientific). […] 16% carbonation was determined. using Equation (1), which is derived making use of the charge and mass balances together with the acid constants of H2CO3, pK1CO2 = 6.35, pK2CO2 = 10.25 and water dissociation constant pKw = 14. (1) V = −V0Ca10^pKa−pH/1+10^pKa−pH−V0Ca+V0(1/10^pH−10^pH+pKw)/cb(1−α(1−1/1+10^pH+pK1CO2+10^2pH+pK2CO2))+(1/10^pH−10^pH+pKw) where V0 is the titrated solution initial volume, L is concentration, pKa is the searched acid constant, pkw is the minus logarithm of the water dissociation constant, Cb is the titrant concentration, α is the fraction of carbonated titrant, pK1CO2 is the first dissociation constant of CO2 and pK2CO2 is the second dissociation constant of CO2.

[4] = SAXS, core-shell model fit; format: physicochemical
Method: SAXS was measured at the Non-Crystalline Diffraction beamline at ALBA Synchrotron NCD-SWEET, Barcelona. A sample-detector distance of 2.433 m was used with 0.10 nm wavelength coupled with a Q315r detector from ADSC. The q scale was calibrated with a silver behenate sample, and data reduction was performed with the software provided by the beamline. The intensity is shown as a function of scattering vector q expressed in nm^−1. q = (4π/λ) sin(θ/2), where θ is the scattering angle and λ is the wavelength of radiation. The spectra have been fitted to lamellar models based on Gaussian description of the bilayer electronic profile for the vesicles, as described in Haba et al.. We have kept the bilayer hydrophobic profile constant along all the samples to avoid overfitting. In these conditions, the estimated error in the position of the headgroups is 2% and 5% for the width of the Gaussian. The pure histidine derivative DMHNHC14 has been fitted to a core-shell model as described in Reference. SAXS of the pure DMHNHC14 compound was measured using an in-house instrument S3-MICRO (Hecus X-ray systems GMBH, Graz, Austria) coupled to a GENIX-Fox three-dimensional (3D) X-ray source (Xenox, Grenoble, France), as described in Reference and performing the same procedures as detailed therein.

[5] = tested on: Klebsiella pneumoniae ATCC 13883; assay: Broth microdilution MIC; format: cell-based; details: 24 h, 37 °C, total surfactant concentration
[6] = tested on: Escherichia coli ATCC 25922; assay: Broth microdilution MIC; format: cell-based; details: 24 h, 37 °C, total surfactant concentration
[7] = tested on: Bacillus subtilis ATCC 6633; assay: Broth microdilution MIC; format: cell-based; details: 24 h, 37 °C, total surfactant concentration
Method: as §1, §2

[8] = tested on: Candida albicans ATCC 10231; assay: Broth microdilution MIC; format: cell-based; details: 24 h, 37 °C, total surfactant concentration
Method: as §1, §2

[9] = tested on: Kocuria rhizophila ATCC 9341; assay: Broth microdilution MIC; format: cell-based; details: 24 h, 37 °C, total surfactant concentration
Method: as §1, §2

[10] = tested on: Pseudomonas aeruginosa ATCC 27853; assay: Broth microdilution MIC; format: cell-based; details: 24 h, 37 °C, total surfactant concentration
Method: as §1, §2

[11] = tested on: Staphylococcus epidermidis ATCC 12228; assay: Broth microdilution MIC; format: cell-based; details: 24 h, 37 °C, total surfactant concentration
Method: as §1, §2

erythrocytes = format: cell-based, rabbit
Method: The erythrocytes, taken from rabbit blood samples, were washed three times in PBS (pH 7.4) and resuspended in PBS at a cell density of 8 × 10^9 cells/mL. The hemolytic activity of the catanionic formulations used in this work was carried out using the procedure described by Pape et al. with minor modifications. A series of different volumes of a concentrated solution (1000 μM for the general case and 5000 μM for the 20:80 and cholesterol-containing formulations) of the catanionic formulation (10–80 μL) were placed in polystyrene tubes containing 25 μL of the prepared erythrocyte suspension and PBS buffer was added to each tube to a total volume of 1 mL. The resulted solutions were incubated at room temperature and shaken for 10 min and the tubes were then centrifuged (5 min at 10,000 rpm). The hemolysis (%) was calculated by comparing the absorbance (540 nm) of the supernatant of the solutions with that of Milli-Q water (control 100% hemolysis) and PBS buffer solution (control, 0% hemolysis).

[12] = 10 mM NaCl CO2 saturated solution

CCCCCCCCCCCCCC(=O)O [Sodium myristate, sodium myristate]
MIC ([1]; read-out: MIC for all microorganisms tested): > 113 µM
Antibacterial activity (in words) [1]: did not show activity
Concentration at which surface tension stabilizes [2, 12]: around 0.3 mM
Limiting surface tension [2, 12]: about 25 mNm^−1
Surface tension at CMC ([2]; basic conditions): about 40 mNm^−1
CMC ([2]; basic media): 3 mM

N(π),N(τ)-bis(methyl)-L-Histidine tetradecyl amide [DMHNHC14]
pKa [3]: 5.7-5.9
pKa calculated from the concentration and the initial solution pH [3]: 5.4
pKa shift versus literature value for the histidine secondary amine [3]: about 3.3 units
Aggregation number ([4]; from SAXS core-shell fit): 64
Area per molecule (SAXS) ([4]; from SAXS core-shell fit): 0.66 nm^2
Hydration degree per polar head ([4]; from hydrophilic shell volume and electronic density): about 17 water molecules
Hydrophilic corona thickness (core-shell model) ([4]; micelles of pure surfactant): 0.88 nm
Hydrophobic radius (core-shell model) ([4]; micelles of pure surfactant): 1.84 nm
MIC [5]: 113 µM
MIC [6]: 113 µM
MIC [7]: 28 µM
MIC [8]: 28 µM
MIC [9]: 28 µM
MIC [10]: 227 µM
MIC [11]: 14 µM
Antibacterial activity (in words) [1]: broad spectrum of antibacterial activity
Hemolytic activity (erythrocytes): increases with the dose

From paper PMC7727793, “Aggregation Behavior, Antibacterial Activity and Biocompatibility of Catanionic Assemblies Based on Amino Acid-Derived Surfactants” (International Journal of Molecular Sciences, 2020)
